According to patent publication US20250092056A1, “URACIL DERIVATIVES HAVING VIRUS REPLICATION INHIBITORY ACTIVITY AND PHARMACEUTICAL COMPOSITION COMPRISING THE SAME” (Shionogi & Co., Ltd., priority 2022, published 2025):
Like-named read-outs stand apart in the source and are kept apart here.

What was measured:
SARS-CoV-2 = assay: Cytopathic effect (CPE) suppression effect confirmation test using HEK293T/ACE2-TMPRSS2 cells; format: cell-based; settings: Severe acute respiratory syndrome coronavirus 2, HEK-293T
[1] = molecular target: Recombinant SARS-CoV-2 3CL Protease (Severe acute respiratory syndrome coronavirus 2 (2019-nCoV) (SARS-CoV-2), UniProt P0DTD1); assay: biochemical; format: biochemical; settings: 50% SARS-CoV-2 3CL protease inhibitory concentration; read-out: IC50
[2] = 72 h, read-out: EC50 (50% SARS-CoV-2 infected cell death inhibitory concentration), class, HEK293T/ACE2-TMPRSS2 cells, CPE suppression, CellTiter-Glo 2.0 after 3 days culture
[3] = 50% SARS-CoV-2 infected cell death inhibitory concentration, HEK293T/ACE2-TMPRSS2 cells, read-out: EC50
[4] = 72 h, read-out: EC50 (50% SARS-CoV-2 infected cell death inhibitory concentration), HEK293T/ACE2-TMPRSS2 cells, CPE suppression, CellTiter-Glo 2.0 after 3 days culture

N#CCn1c(N2CC(N3CCOCC3)C2)c(-c2ccc(F)c(Cl)c2)c(=O)n(-c2cncc(Cl)c2)c1=O [Compound I-085]
EC50 (SARS-CoV-2; [2]): < 100 nM
IC50 [1]: < 10 nM

N#CCn1c(-c2ccc(C3CC3)cc2)c(N2CCCCC2)c(=O)n(-c2cncc(Cl)c2)c1=O [Compound I-265]
EC50 (SARS-CoV-2; [3]): 100 to 1000 nM
IC50 [1]: 10 to 100 nM

N#CCn1c(N2CCC(F)(F)CC2)c(-c2csc3ccccc23)c(=O)n(-c2cncc(Cl)c2)c1=O [Compound I-329]
EC50 (SARS-CoV-2; [3]): < 100 nM
IC50 [1]: < 10 nM

CC(C)(C)OC(=O)C(C#N)n1c(N2CCC(C(F)(F)F)CC2)c(-c2ccc(F)c(Cl)c2)c(=O)n(-c2cncc(Cl)c2)c1=O (racemic) [Compound I-050]
EC50 (SARS-CoV-2; 72 h, HEK293T/ACE2-TMPRSS2 cells, CPE suppression, CellTiter-Glo 2.0 after 3 days culture, read-out: EC50 (50% SARS-CoV-2 infected cell death inhibitory concentration), class): < 100 nM
IC50 [1]: 10 to 100 nM

CC(C)(O)C1CN(c2c(-c3ccc(F)c(Cl)c3)c(=O)n(-c3cncc(Cl)c3)c(=O)n2CC#N)C1 [Compound I-072]
EC50 (SARS-CoV-2; [4]): 5.21 nM
IC50 [1]: 0.66 nM

CC(C)(O)C1(F)CN(c2c(-c3ccc(F)c(Cl)c3)c(=O)n(-c3cncc(Cl)c3)c(=O)n2CC#N)C1 [Compound I-289]
EC50 (SARS-CoV-2; [3]): < 100 nM
IC50 [1]: < 10 nM

CC1(O)CN(c2c(-c3ccc(F)c(Cl)c3)c(=O)n(-c3cncc(OCF)n3)c(=O)n2CC#N)C1 [Compound I-355]
EC50 (SARS-CoV-2; [3]): < 100 nM
IC50 [1]: < 10 nM

N#CCn1c(N2CC(F)(C3CC3)C2)c(-c2ccc(F)c(Cl)c2)c(=O)n(-c2cncc(Cl)c2)c1=O [Compound I-076]
EC50 (SARS-CoV-2; [2]): < 100 nM
IC50 [1]: < 10 nM

Cc1cncc(-n2c(=O)c(Cc3cc(F)c(F)c(F)c3)c(-c3ccc(C)c(C)c3)n(C(C)C#N)c2=O)c1 (racemic) [Compound I-057]
EC50 (SARS-CoV-2; [4]): 29 nM
IC50 [1]: 9.8 nM

N#CCn1c(N2CC(O)(c3ncccn3)C2)c(-c2ccc(F)c(Cl)c2)c(=O)n(-c2cncc(OCF)n2)c1=O [Compound I-377]
EC50 (SARS-CoV-2; [3]): < 100 nM
IC50 [1]: < 10 nM

N#CCn1c(N2CC(C(F)(F)F)C2)c(-c2ccc(F)c(F)c2)c(=O)n(-c2cncc(Cl)c2)c1=O [Compound I-316]
EC50 (SARS-CoV-2; [3]): < 100 nM
IC50 [1]: < 10 nM
